For test [1], the target named is T1, OEP21 variants (single point mutations, ΔL5) (Pisum sativum, UniProt Q9SM57, C109A).
T1 construct: made in house; host or cells: Escherichia coli BL21(DE3) (described for OEP21)
Kind of test: Fluorescence polarization binding of MANT-ATP to OEP21 variants.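 As to all read-outs here: KD obtained by fitting fluorescence polarization data to a one-site binding model, each experiment run in triplicate.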 The following applies: OEP21 variant C109A; for Kd: unit inferred. Details: species or system garden pea.

Test [2] concerns the target T2, OEP21 variants (single point mutations, ΔL5) (Pisum sativum, UniProt Q9SM57, K104A).
T2 construct: made in house; host or cells: Escherichia coli BL21(DE3) (described for OEP21)
The test is described as above. Set-up: species or system garden pea. As to conditions: OEP21 variant K104A; for Kd: unit inferred.

Test [3] has as its target T3, OEP21 variants (single point mutations, ΔL5) (Pisum sativum, UniProt Q9SM57, K19A).
T3 construct: made in house; host or cells: Escherichia coli BL21(DE3) (described for OEP21)
The test is described as above. Details: species or system garden pea. As to conditions: OEP21 variant K19A; for Kd: unit inferred.

The target of test [4] is T4, OEP21 variants (single point mutations, ΔL5) (Pisum sativum, UniProt Q9SM57, K90A).
T4 construct: made in house; host or cells: Escherichia coli BL21(DE3) (described for OEP21)
T4 sequence (Q9SM57 whole entry L5del/K90A): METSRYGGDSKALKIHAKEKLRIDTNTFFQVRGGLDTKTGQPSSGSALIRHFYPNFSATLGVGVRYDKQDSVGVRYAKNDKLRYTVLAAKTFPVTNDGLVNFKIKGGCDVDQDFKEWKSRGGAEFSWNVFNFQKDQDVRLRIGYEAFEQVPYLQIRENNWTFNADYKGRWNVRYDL
The description is as above. The following applies: OEP21 variant K90A; for Kd: unit inferred. Details: species or system garden pea.

The target of test [5] is T5, OEP21 variants (single point mutations, ΔL5) (Pisum sativum, UniProt Q9SM57, N164R/R66A).
T5 construct: made in house; host or cells: Escherichia coli BL21(DE3) (described for OEP21)
T5 sequence (Q9SM57 whole entry L5del/R66A/N164R): as the sequence (Q9SM57 whole entry L5del/K90A) above, with R65A, A89K, N163R counted along it
The description is as above. Set-up: species or system garden pea. As to conditions: OEP21 variant R66A/N164R; for Kd: unit inferred.

Test [6] deals with T6, OEP21 variants (single point mutations, ΔL5) (Pisum sativum, UniProt Q9SM57, R140A).
T6 construct: made in house; host or cells: Escherichia coli BL21(DE3) (described for OEP21)
T6 sequence (Q9SM57 whole entry L5del/R140A): as the sequence (Q9SM57 whole entry L5del/K90A) above, with A89K, R139A counted along it
The description is as above. Set-up: species or system garden pea. As to conditions: OEP21 variant R140A; for Kd: unit inferred.

Test [7] concerns the target T7, OEP21 variants (single point mutations, ΔL5) (Pisum sativum, UniProt Q9SM57, R142A).
T7 construct: made in house; host or cells: Escherichia coli BL21(DE3) (described for OEP21)
The test is described as above. As to conditions: OEP21 variant R142A; for Kd: unit inferred. Details: species or system garden pea.

Test [8] addresses T8, OEP21 variants (single point mutations, ΔL5) (Pisum sativum, UniProt Q9SM57, R157A).
T8 construct: made in house; host or cells: Escherichia coli BL21(DE3) (described for OEP21)
The test is described as above. Set-up: species or system garden pea. As to conditions: OEP21 variant R157A; for Kd: unit inferred.

Test [9] deals with T9, OEP21 variants (single point mutations, ΔL5) (Pisum sativum, UniProt Q9SM57, R174A).
T9 construct: made in house; host or cells: Escherichia coli BL21(DE3) (described for OEP21)
T9 sequence (Q9SM57 whole entry L5del/R174A): as the sequence (Q9SM57 whole entry L5del/K90A) above, with A89K, R173A counted along it
The test is described as above. Details: species or system garden pea. As to conditions: OEP21 variant R174A; for Kd: unit inferred.

The target of test [10] is T10, OEP21 variants (single point mutations, ΔL5) (Pisum sativum, UniProt Q9SM57, R33A).
T10 construct: made in house; host or cells: Escherichia coli BL21(DE3) (described for OEP21)
T10 sequence (Q9SM57 whole entry L5del/R33A): as the sequence (Q9SM57 whole entry L5del/K90A) above, with R32A, A89K counted along it
Described as above. Set-up: species or system garden pea. The following applies: OEP21 variant R33A; for Kd: unit inferred.

Test [11] addresses T11, OEP21 variants (single point mutations, ΔL5) (Pisum sativum, UniProt Q9SM57, R51A).
T11 construct: made in house; host or cells: Escherichia coli BL21(DE3) (described for OEP21)
Described as above. As to conditions: OEP21 variant R51A, unit inferred. Details: species or system garden pea.

In test [12] the target is T12, OEP21 variants (single point mutations, ΔL5) (Pisum sativum, UniProt Q9SM57, R66A).
T12 construct: made in house; host or cells: Escherichia coli BL21(DE3) (described for OEP21)
T12 sequence (Q9SM57 whole entry L5del/R66A): as the sequence (Q9SM57 whole entry L5del/K90A) above, with R65A, A89K counted along it
The test is described as above. Set-up: species or system garden pea. The following applies: OEP21 variant R66A; for Kd: unit inferred.

The target of test [13] is T13, OEP21 variants (single point mutations, ΔL5) (Pisum sativum, UniProt Q9SM57, R66W).
T13 construct: made in house; host or cells: Escherichia coli BL21(DE3) (described for OEP21)
T13 sequence (Q9SM57 whole entry L5del/R66W): as the sequence (Q9SM57 whole entry L5del/K90A) above, with R65W, A89K counted along it
Described as above. Details: species or system garden pea. The following applies: OEP21 variant R66W; for Kd: unit inferred.

For test [14], the target named is T14, OEP21 variants (single point mutations, ΔL5) (Pisum sativum, UniProt Q9SM57, R84A).
T14 construct: made in house; host or cells: Escherichia coli BL21(DE3) (described for OEP21)
T14 sequence (Q9SM57 whole entry L5del/R84A): as the sequence (Q9SM57 whole entry L5del/K90A) above, with R83A, A89K counted along it
Described as above. Set-up: species or system garden pea. As to conditions: OEP21 variant R84A; for Kd: unit inferred.

Test [15] deals with OEP21 variants (single point mutations, ΔL5). The test is described as above. Set-up: species or system garden pea. As to conditions: OEP21 variant dL5; for Kd: unit inferred.
The target in test [16] is OEP21 (Pisum sativum, UniProt Q9SM57). As to conditions: Cu^2+ oxidation then BS^3; 5 mM metabolite.
Sequence of OEP21 (Q9SM57 whole entry): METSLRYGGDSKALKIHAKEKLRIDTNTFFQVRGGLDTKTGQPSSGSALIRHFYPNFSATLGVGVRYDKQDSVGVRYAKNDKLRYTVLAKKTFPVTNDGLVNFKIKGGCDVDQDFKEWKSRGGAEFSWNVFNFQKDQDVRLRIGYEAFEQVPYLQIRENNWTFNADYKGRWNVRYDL
Setting [17] is: individual determinations, read-out: KD1-KD3.

Where “and” joins values, the source holds several entries; their conditions need not be identical. Equal values may be shown once. Read-outs that look alike come from different tables or passages of the source.

T11 sequence (Q9SM57 whole entry L5del/R51A): as the sequence (Q9SM57 whole entry L5del/K90A) above, with R50A, A89K counted along it
T2 sequence (Q9SM57 whole entry L5del/K104A): as the sequence (Q9SM57 whole entry L5del/K90A) above, with A89K, K103A counted along it
T8 sequence (Q9SM57 whole entry L5del/R157A): as the sequence (Q9SM57 whole entry L5del/K90A) above, with A89K, R156A counted along it
T7 sequence (Q9SM57 whole entry L5del/R142A): as the sequence (Q9SM57 whole entry L5del/K90A) above, with A89K, R141A counted along it
T1 sequence (Q9SM57 whole entry L5del/C109A): as the sequence (Q9SM57 whole entry L5del/K90A) above, with A89K, C108A counted along it
T3 sequence (Q9SM57 whole entry L5del/K19A): as the sequence (Q9SM57 whole entry L5del/K90A) above, with K18A, A89K counted along it

For “2′-(or-3′)-O-(N-methylanthraniloyl) adenosine 5′-triphosphate [Mant-ATP]”, the Kd was 190 nM and 220 nM and 213 nM in [1] (setting [17]); 208 nM in test [1] (read-out: mean KD); 209 nM and 297 nM and 203 nM in test [2] (setting [17]); 236 nM in [2] (read-out: mean KD); 221 nM and 259 nM and 267 nM in [3] (setting [17]); 249 nM in test [3] (read-out: mean KD). Also, the Kd in test [4] (setting [17]) was 293 nM and 271 nM and 247 nM; in [4] (read-out: mean KD), 270 nM; in test [5] (setting [17]), 172 nM and 184 nM and 211 nM; in [5] (read-out: mean KD), 189 nM; in [6] (setting [17]), 233 nM and 286 nM and 307 nM; in test [6] (read-out: mean KD), 275 nM. Besides, the Kd in test [7] (setting [17]) was 270 nM and 331 nM and 267 nM; in test [7] (read-out: mean KD) it was 289 nM; in test [8] (setting [17]) it was 248 nM and 258 nM and 335 nM; in test [8] (read-out: mean KD) it was 280 nM; in test [9] (setting [17]), 429 nM and 300 nM and 297 nM; in test [9] (read-out: mean KD), 342 nM. The Kd in test [10] (setting [17]) was 142 nM and 125 nM and 126 nM; in test [10] (read-out: mean KD), 131 nM; in test [11] (setting [17]), 142 nM and 101 nM and 206 nM; in [11] (read-out: mean KD), 150 nM; in [12] (setting [17]) it was 214 nM and 195 nM and 190 nM; in [12] (read-out: mean KD), 200 nM. The Kd in test [13] (setting [17]) is 275 nM and 175 nM and 227 nM; in test [13] (read-out: mean KD) it was 226 nM; in test [14] (setting [17]) it was 264 nM and 249 nM and 350 nM; in test [14] (read-out: mean KD), 288 nM; in test [15] (setting [17]), 214 nM and 204 nM and 297 nM; in test [15] (read-out: mean KD), 238 nM. Besides, the “rel KD1-KD3” value in [1] (relative to mean KD of wt) is 1.044 and 1.209 and 1.17; in test [2] (relative to mean KD of wt) it was 1.148 and 1.632 and 1.115; in [3] (relative to mean KD of wt), 1.214 and 1.423 and 1.467; in test [4] (relative to mean KD of wt) it was 1.61 and 1.489 and 1.357; in test [5] (relative to mean KD of wt) it was 1.011 and 1.159; in test [6] (relative to mean KD of wt), 1.28 and 1.571 and 1.687. Besides, the “rel KD1-KD3” value in test [7] (relative to mean KD of wt) was 1.484 and 1.819 and 1.467; in [8] (relative to mean KD of wt) it was 1.363 and 1.418 and 1.841; in test [9] (relative to mean KD of wt) it was 2.357 and 1.648 and 1.632; in test [10] (relative to mean KD of wt), 0.7802 and 0.6868 and 0.6923; in test [12] (relative to mean KD of wt), 1.176 and 1.071 and 1.044; in test [13] (relative to mean KD of wt) it was 1.511 and 1.247. Besides, the “rel KD1-KD3” value in test [14] (relative to mean KD of wt) is 1.451 and 1.368 and 1.923; in test [15] (relative to mean KD of wt), 1.176 and 1.121 and 1.632.
For the compound `O=C[C@H](O)COP(=O)(O)O` [GAP, D-glyceraldehyde-3-phosphate], in test [16], the “effect on enhanced oligomerization of Cys109-oxidized OEP21 (in words)” value was “reduced this process”.

(Values after publication PMC10279527, “Structural basis of metabolite transport by the chloroplast outer envelope channel OEP21” (Nature Structural & Molecular Biology, 2023).)
